Measured values from PubChem BioAssay AID1598.
Results filed as inconclusive are left out.

What follows are compounds tested on SMN2 vs SMN1 luciferase splicing reporter cells (assay: enhancers of SMN2 over SMN1 splicing, cell-based, SMN2/SMN1 luciferase reporters (AID 1598)). Settings: measured here: SMN luciferase EC50 follow-up.

In order of rising EC50:
1. NC12CC3CC(CC(C3)C1)C2  0.4 µM
2. CC(C(=O)O)c1ccc(N2Cc3ccccc3C2=O)cc1 (configuration not stated)  0.6 µM
3. O[N+]1=CC=CCC1=S.On1ccccc1=S.[Zn]  1.25 µM
4. CC[C@@]1(O)C(=O)OCc2c1cc1n(c2=O)Cc2cc3ccccc3nc2-1  2.5 µM
5. CO[C@@]1(NC(=O)Cc2cccs2)C(=O)N2C(C(=O)O)=C(COC(N)=O)CS[C@@H]21  2.5 µM
6. O=C1C=C2C(=CCOC2O)O1 (configuration not stated)  5 µM
7. CC[C@@]1(O)C[C@H](OC2CC(N(C)C)C(OC3CC(O)C(OC4CCC(=O)C(C)O4)C(C)O3)C(C)O2)c2c(cc3c(c2O)C(=O)c2c(O)cccc2C3=O)[C@H]1C(=O)OC (some centres not stated)  7 µM
